Active and inactive are the calls of the source. No cut-off for these calls is given here.
Tests used:
[1] = tested on: HCT-116; experiment: Induction of apoptosis in human HCT-116 cells assessed as increase in caspase-3 level at 0.2 to 5 uM measured after 24 hrs by Western blot analysis; format: functional, cell-based; conditions: dose 0.2-5 µM
[2] = Toxicity in BALB/c nude mouse xenografted with human HCT-116 cells assessed as effect on body weight at 60 mg/kg, po bid for 21 days relative to control; format: organism-based; conditions: in vivo, 504 h, time 21 day
[3] = tested on: HCT-116; experiment: Antiproliferative activity against human HCT-116 cells assessed as inhibition of cell proliferation incubated for 72 hrs by CCK8 assay; format: functional, cell-based; conditions: HCT-116, 72 h
[4] = tested on: HCT-116; experiment: Cell cycle arrest in human HCT-116 cells assessed as accumulation at G1 phase at 0.1 uM incubated for 24 hrs by propidium iodide staining based flow cytometric analysis (Rvb =35.7 %); format: functional
[5] = Toxicity in BALB/c nude mouse xenografted with human A549 cells assessed as morphological changes in liver at 150 mg/kg, po bid by H&E staining based light microscopic analysis; format: organism-based; conditions: in vivo
[6] = tested on: A549; experiment: Antiproliferative activity against human A549 cells assessed as inhibition of cell proliferation incubated for 72 hrs by CCK8 assay; format: functional, cell-based; conditions: A549, 72 h
[7] = tested on: HCT-116; experiment: Antitumor activity against human HCT-116 cells xenografted in BALB/c nude mouse assessed as inhibition of tumor growth at 60 mg/kg, po BID administered for 21 days measured by caliper relative to control; format: functional; conditions: HCT-116, po, 504 h, time 21 day, read-out: TGI
[8] = tested on: HCT-116; experiment: Induction of apoptosis in human HCT-116 cells assessed as late apoptotic cells level at 0.1 uM incubated for 48 hrs by annexin V-FITC/propidium iodide staining based flow cytometry (reference value: 1.87%); format: functional
[9] = Half life in mouse liver microsomes; format: ADME, Microsome
[10] = target: DNA topoisomerase 2-alpha (Homo sapiens) (UniProt P11388); experiment: Inhibition of TOP2 (unknown origin) by ethidium bromide staining based gel electrophoresis
[11] = tested on: HCT-116; experiment: Induction of apoptosis in human HCT-116 cells assessed as early apoptotic cells level at 0.5 uM incubated for 48 hrs by annexin V-FITC/propidium iodide staining based flow cytometry (reference value: 2.02%); format: functional
[12] = tested on: HCT-116; experiment: Antitumor activity against human HCT-116 cells xenografted in iv dosed BALB/c nude mouse assessed as inhibition of tumor growth measured by caliper relative to control; format: functional
[13] = tested on: HCT-116; experiment: Induction of apoptosis in human HCT-116 cells assessed as upregulation of Bax expression at 0.2 to 5 uM measured after 24 hrs by Western blot analysis; format: functional, cell-based; conditions: dose 0.2-5 µM
[14] = tested on: HCT-116; experiment: Cell cycle arrest in human HCT-116 cells assessed as accumulation at S phase at 0.5 uM incubated for 24 hrs by propidium iodide staining based flow cytometric analysis (Rvb =44.3 %); format: functional
[15] = tested on: HCT-116; experiment: Antitumor activity against human HCT-116 cells xenografted in BALB/c nude mouse assessed as inhibition of tumor growth at 150 mg/kg, po BID measured by caliper relative to control; format: functional; conditions: HCT-116, po, read-out: TGI
[16] = tested on: HCT-116; experiment: Induction of apoptosis in human HCT-116 cells assessed as late apoptotic cells level at 0.5 uM incubated for 48 hrs by annexin V-FITC/propidium iodide staining based flow cytometry (reference value: 1.87%); format: functional
[17] = tested on: HCT-116; experiment: Induction of apoptosis in human HCT-116 cells assessed as downregulation of Bcl-2 expression at 0.2 to 5 uM measured after 24 hrs by Western blot analysis; format: functional, cell-based; conditions: dose 0.2-5 µM
[18] = Toxicity in BALB/c nude mouse xenografted with human HCT-116 cells assessed as effect on body weight at 150 mg/kg, po bid for 21 days relative to control; format: organism-based; conditions: in vivo, 504 h, time 21 day
[19] = target: Tubulin; experiment: Inhibition of tubulin polymerization (unknown origin); format: protein-complex assay, Homo sapiens
[20] = tested on: HCT-116; experiment: Induction of apoptosis in human HCT-116 cells assessed as late apoptotic cells level at 0.05 uM incubated for 48 hrs by annexin V-FITC/propidium iodide staining based flow cytometry (reference value: 1.87%); format: functional
[21] = tested on: MDA-MB-231; experiment: Antiproliferative activity against human MDA-MB-231 cells assessed as inhibition of cell proliferation incubated for 72 hrs by CCK8 assay; format: functional, cell-based; conditions: MDA-MB-231, 72 h
[22] = tested on: HCT-116; experiment: Cell cycle arrest in human HCT-116 cells assessed as accumulation at G2 phase at 0.1 uM incubated for 24 hrs by propidium iodide staining based flow cytometric analysis (Rvb =20 %); format: functional
[23] = target: T1, DNA topoisomerase 1 (Homo sapiens) (UniProt P11387); experiment: Inhibition of TOP1 (unknown origin) assessed as decrease in relaxation of supercoiled DNA using pBR322 plasmid DNA by ethidium bromide staining based gel electrophoresis
T1 sequence (whole entry): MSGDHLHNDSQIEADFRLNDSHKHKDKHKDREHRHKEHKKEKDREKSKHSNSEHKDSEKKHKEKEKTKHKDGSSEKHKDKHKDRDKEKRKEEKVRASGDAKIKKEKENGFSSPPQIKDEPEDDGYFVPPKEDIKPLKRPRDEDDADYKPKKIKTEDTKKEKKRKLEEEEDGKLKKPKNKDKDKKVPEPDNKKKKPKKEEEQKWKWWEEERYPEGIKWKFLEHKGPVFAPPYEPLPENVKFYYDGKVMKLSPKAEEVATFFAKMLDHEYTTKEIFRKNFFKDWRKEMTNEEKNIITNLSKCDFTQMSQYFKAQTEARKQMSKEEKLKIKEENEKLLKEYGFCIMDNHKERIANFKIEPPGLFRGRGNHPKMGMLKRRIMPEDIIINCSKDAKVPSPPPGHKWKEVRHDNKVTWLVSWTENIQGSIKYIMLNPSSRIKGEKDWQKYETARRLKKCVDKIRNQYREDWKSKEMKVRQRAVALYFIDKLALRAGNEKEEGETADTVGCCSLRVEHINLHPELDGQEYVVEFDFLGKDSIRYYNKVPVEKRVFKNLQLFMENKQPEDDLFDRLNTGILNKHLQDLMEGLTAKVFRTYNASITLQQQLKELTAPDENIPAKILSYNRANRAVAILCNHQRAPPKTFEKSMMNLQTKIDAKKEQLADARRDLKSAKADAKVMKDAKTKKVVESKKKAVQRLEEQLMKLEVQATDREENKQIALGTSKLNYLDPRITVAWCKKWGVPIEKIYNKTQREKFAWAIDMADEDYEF

[24] = tested on: HCT-116; experiment: Induction of apoptosis in human HCT-116 cells assessed as early apoptotic cells level at 0.05 uM incubated for 48 hrs by annexin V-FITC/propidium iodide staining based flow cytometry (reference value: 2.02%); format: functional
[25] = tested on: HCT-116; experiment: Induction of apoptosis in human HCT-116 cells assessed as increase in ratio of Bax to Bcl2 level at 0.2 to 5 uM measured after 24 hrs by Western blot analysis; format: functional, cell-based; conditions: dose 0.2-5 µM
[26] = Toxicity in BALB/c nude mouse xenografted with human A549 cells assessed as effect on body weight at 150 mg/kg, po bid for 14 days; format: organism-based; conditions: in vivo, 336 h, time 14 day
[27] = tested on: HCT-116; experiment: Induction of apoptosis in human HCT-116 cells assessed as early apoptotic cells level at 0.1 uM incubated for 48 hrs by annexin V-FITC/propidium iodide staining based flow cytometry (reference value: 2.02%); format: functional

Sequence of DNA topoisomerase 2-alpha (Homo sapiens) (P11388 whole entry): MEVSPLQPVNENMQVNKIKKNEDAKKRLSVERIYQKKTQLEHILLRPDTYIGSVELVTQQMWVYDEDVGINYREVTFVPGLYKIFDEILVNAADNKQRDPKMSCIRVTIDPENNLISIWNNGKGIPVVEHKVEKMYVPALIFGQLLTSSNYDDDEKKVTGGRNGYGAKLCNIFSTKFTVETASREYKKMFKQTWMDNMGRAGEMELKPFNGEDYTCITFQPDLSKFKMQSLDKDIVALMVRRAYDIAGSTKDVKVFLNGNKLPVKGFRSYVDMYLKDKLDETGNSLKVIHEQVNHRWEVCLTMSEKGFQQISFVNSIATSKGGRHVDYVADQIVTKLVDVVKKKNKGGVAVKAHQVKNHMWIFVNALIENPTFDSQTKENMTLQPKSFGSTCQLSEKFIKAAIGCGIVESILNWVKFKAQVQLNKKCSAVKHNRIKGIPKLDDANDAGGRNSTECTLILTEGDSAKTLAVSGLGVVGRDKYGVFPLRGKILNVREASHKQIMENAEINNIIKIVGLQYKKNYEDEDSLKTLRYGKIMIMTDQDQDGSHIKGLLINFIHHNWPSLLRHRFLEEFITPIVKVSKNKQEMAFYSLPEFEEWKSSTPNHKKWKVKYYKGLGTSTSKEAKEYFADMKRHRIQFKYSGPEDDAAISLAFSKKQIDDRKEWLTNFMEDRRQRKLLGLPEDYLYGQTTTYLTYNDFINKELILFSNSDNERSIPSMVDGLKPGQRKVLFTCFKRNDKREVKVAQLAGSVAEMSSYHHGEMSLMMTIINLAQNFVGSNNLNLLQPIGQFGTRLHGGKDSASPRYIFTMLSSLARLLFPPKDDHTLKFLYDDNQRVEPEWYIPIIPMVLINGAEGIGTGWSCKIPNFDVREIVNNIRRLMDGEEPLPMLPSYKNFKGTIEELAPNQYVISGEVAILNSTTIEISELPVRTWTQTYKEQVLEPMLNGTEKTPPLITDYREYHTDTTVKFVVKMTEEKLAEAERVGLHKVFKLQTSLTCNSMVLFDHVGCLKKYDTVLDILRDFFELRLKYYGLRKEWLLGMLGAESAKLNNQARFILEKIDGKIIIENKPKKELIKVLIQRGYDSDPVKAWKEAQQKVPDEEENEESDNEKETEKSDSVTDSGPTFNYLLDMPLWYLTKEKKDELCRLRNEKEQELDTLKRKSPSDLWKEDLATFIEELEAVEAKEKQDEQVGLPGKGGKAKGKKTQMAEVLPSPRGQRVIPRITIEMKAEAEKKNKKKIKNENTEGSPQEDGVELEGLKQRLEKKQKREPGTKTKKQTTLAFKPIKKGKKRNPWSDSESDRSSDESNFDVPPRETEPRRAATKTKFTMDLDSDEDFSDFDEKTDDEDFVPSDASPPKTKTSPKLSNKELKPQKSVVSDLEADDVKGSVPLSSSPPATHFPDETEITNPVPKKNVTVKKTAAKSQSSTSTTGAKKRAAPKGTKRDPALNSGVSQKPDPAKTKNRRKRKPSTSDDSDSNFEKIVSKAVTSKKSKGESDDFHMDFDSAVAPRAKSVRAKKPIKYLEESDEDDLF

IC50 [3]: 66 nM
IC50 [6]: 2600 nM
half-life [9]: 58.4 min
inhibition [10]: Dose-Dependent Effect
IC50 [19]: 31600 nM
IC50 [21]: 650 nM
inhibition [23]: Dose-Dependent Effect
SMILES: CN1c2ccccc2C(=O)N2CCc3c([nH]c4ccc(OP(=O)(O)O)cc34)C21 (configuration not stated)
Activity [1]: Active
Activity [2]: Non-Toxic
Activity [4]: 6%
Activity [5]: Non-Toxic
inhibition in vivo at 60 mg/kg [7]: 48%
Activity [8]: 14.8%
Activity [11]: 44.04%
TGI [12]: 45%
Activity [13]: Active
Activity [14]: 30.4%
inhibition in vivo at 150 mg/kg [15]: 48%
Activity [16]: 13.49%
Activity [17]: Active
Activity [18]: Toxic
Activity [20]: 8.45%
Activity [22]: 53.4%
Activity [24]: 15.1%
Activity [25]: Active
Activity [26]: Non-Toxic
Activity [27]: 38.55%
